One data set deals with HT29-MTX monolayers. Conditions: pH 7.4.
The test system of data set [1] is Caco-2/HT29-MTX cocultures.

Turning to Lucifer yellow [LY], the Papp with HT29-MTX monolayers was 2-3 10^−6 cm/s. The “Papp, effect of adding HT29-MTX to Caco-2 cells” value in data set [1] is reported as “drastically increases the Papp”.

Source of the values: patent US20130302888A1, “CELL CULTURE METHOD AND SYSTEM FOR ESTABLISHING AN IN VITRO MODEL OF THE INTESTINAL BARRIER” (GATTEFOSSE SAS, priority 2011, published 2013).
